Test results: publication PMC13369845 (Oncogenesis, 2026)
Where no end group is shown, it is not given here.

Experiments:
[1] = tested on: Vemurafenib-resistant A375 cells; test: Cell viability (CCK-8) of Vemurafenib-resistant A375 cells; assay type: cell-based, human
Procedure: Viability was determined using the CCK-8 reagent (APExBIO-K1018). Absorbance was measured at 450 nm using a Varioskan LUX reader.
Vemurafenib-resistant A375 cells were generated following established protocol. Parental cells were treated with 100 nM Vemurafenib (SelleckChem #S1267) for 2 weeks, followed by stepwise doubling of drug concentration every 2 weeks up to 3.2 µM. Surviving cells in maintenance culture containing 2 µM drug were used for downstream studies.

[2] = In vivo plasma pharmacokinetics; design: species or system mouse (C57BL/6); conditions: male C57BL/6 mouse, 5 mg/kg intraperitoneal, LC-MS/MS
Procedure: Blood samples (100 µl) were obtained at 0, 0.25, 0.5, 1, 2, 4, 8, and 24 h via tail vein bleeds.

[3] = tested on: B16F10-derived tumors in C57BL/6 mice; test: B16F10 melanoma mouse tumor model; assay type: in vivo; conditions: CST 10 mg/kg intraperitoneally, three times per week
Procedure: Age-matched male and female C57BL/6 mice (7–9 weeks, n = 9) were subcutaneously injected with 5 × 10⁴ B16-F10 cells in 100 µL PBS. […] Tumor dimensions were measured with calipers, and volume was calculated using the formula V = (length × width²)/2. Mice were euthanized 22 days post-inoculation by inhalational isoflurane, that follow the institutional IACUC protocol and AVMA guideline for Euthanasia of animals (2020). […] Animals were continuously monitored till the loss of righting reflex and response to toe pinch was absent, thus confirming a surgical plane of anesthesia. Tissues were collected when the animals went into deep anesthesia and euthanasia was finally completely by exsanguination. […]
Fixed tumors were paraffin-embedded and sectioned (5 µm). […] The area fraction was calculated as the percentage of pixels that exceeded the threshold within the defined region of interest (ROI). Quantification was performed using Fiji (ImageJ), which computes the area fraction as the ratio of the threshold-positive area to the total ROI area, expressed as a percentage.
Apoptotic nuclei were detected in tumor sections using the CF®594 TUNEL Assay Kit (Biotium #30064). […] Fluorescence images were obtained using a Keyence microscope.
For tissue lysates from wild-type and CST-knockout (CST-KO) mice, 10 µg of total protein was analyzed by immunoblotting using an anti-CST antibody. […]

[4] = In vitro plasma stability; assay type: in vitro ADME, mouse (C57BL/6); conditions: LC-MS/MS
Procedure: Each aliquot (50 µl) was mixed with 150 µl methanol, vortexed, spun, removed the supernatant and reconstituted the pellet with 150 µl 10% formic acid in water. The sample was vortexed and spun, and a 100 µl aliquot was taken, diluted 1:1 with 10 mM ammonium bicarbonate, and analyzed by LC-MS/MS. Using the remaining vs. time dataset, we performed a first-order decay analysis by fitting a linear regression to the natural log-transformed percent remaining values (excluding 0% and t = 0 anchor point) to plot the graph.

Cmax ([2]; ip, plasma from tail vein bleeds 0-24 h, read-out: Cmax (maximum concentration)) [ng/mL] | Tmax (time to reach Cmax) ([2]; plasma) [min] | t1/2 (half-life) in vivo ([2]; plasma) [min] | intact material remaining ([4]; in vitro mouse plasma, 5 µg CST/ml, at ~5.6 h) | apparent first-order rate constant k ([4]; in vitro, C57BL/6 mouse plasma spiked with 5 µg CST/ml, aliquots over 24 h, linear regression of ln(% remaining) vs time, R^2 = 0.971) [h⁻¹] | Compound | cell viability of A375 resistant cells, single agents and combination ([1]; Vemurafenib 2 µM, CST 2 µM, alone or combined, after 48 h) | IC50 of resistant cells relative to parental cells ([1]; Vemurafenib-resistant vs parental A375) [fold] | body weight and liver histology [3]
– | – | – | – | – | CCCS(=O)(=O)Nc1ccc(F)c(C(=O)c2c[nH]c3ncc(-c4ccc(Cl)cc4)cc23)c1F [Vemurafenib] | little effect on cell viability | > 6 | –
160 | 15 | 89.4 | ~ 50% | 0.1246 | SSMKLSFRARAYGFRGPGPQL [CST, Catestatin] | – | – | No major changes in body weight or liver histology
